Results as given in patent publication US12187723B2 (BRISTOL-MYERS SQUIBB COMPANY, priority 2019, dated 2025).

Target: T1, human TLR8 (Homo sapiens, UniProt Q9NR97)
T1 construct: host or cells: HEK-Blue cells
T1 sequence (Q9NR97 27-1041): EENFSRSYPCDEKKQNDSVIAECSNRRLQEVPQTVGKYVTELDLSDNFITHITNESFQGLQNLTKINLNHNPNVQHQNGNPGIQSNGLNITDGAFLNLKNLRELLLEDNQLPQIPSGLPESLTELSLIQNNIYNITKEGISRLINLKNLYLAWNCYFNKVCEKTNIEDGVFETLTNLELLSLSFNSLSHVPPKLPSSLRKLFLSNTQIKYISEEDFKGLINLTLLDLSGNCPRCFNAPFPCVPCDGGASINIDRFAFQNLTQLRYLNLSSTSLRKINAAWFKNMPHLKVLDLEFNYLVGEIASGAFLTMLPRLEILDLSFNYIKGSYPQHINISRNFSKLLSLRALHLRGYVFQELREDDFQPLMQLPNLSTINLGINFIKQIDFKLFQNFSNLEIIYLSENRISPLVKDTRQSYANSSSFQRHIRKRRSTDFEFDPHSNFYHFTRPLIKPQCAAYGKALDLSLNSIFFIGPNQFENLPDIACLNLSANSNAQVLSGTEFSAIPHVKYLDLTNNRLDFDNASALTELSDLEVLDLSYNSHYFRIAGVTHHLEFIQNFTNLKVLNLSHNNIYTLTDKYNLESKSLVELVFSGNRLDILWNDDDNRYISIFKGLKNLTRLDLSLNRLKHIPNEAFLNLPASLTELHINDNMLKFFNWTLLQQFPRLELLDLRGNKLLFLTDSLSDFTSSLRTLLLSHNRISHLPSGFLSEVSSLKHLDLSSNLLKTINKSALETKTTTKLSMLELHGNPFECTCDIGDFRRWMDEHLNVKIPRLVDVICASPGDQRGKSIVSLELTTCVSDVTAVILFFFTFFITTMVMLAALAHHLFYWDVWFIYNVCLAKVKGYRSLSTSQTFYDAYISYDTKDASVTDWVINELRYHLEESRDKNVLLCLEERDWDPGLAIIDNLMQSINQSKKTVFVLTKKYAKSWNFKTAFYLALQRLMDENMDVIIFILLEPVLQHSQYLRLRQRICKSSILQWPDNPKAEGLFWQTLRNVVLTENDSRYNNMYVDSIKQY
Experiment: TLR8 inhibition reporter assay (HEK-Blue SEAP)
Assay type: cell-based
Details: HEK-Blue cells overexpressing human TLR8, R848 15.9 μM, 22 hour incubation
Procedure, shortened: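 Dose–response from 0.05 nM to 50 μM was run in HEK-Blue human TLR7, TLR8 and TLR9 reporter cells. After 30 min at room temperature with compound, ligand was added (TLR7 gardiquimod 7.5 μM; TLR8 R848 15.9 μM; TLR9 ODN2006 5 nM) and SEAP measured next day, at 22 h.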

Compared with `COc1cc(-c2cc3[nH]c(=O)n(C4CCC(N5CCSCC5)CC4)c3cc2C(C)C)cn2ncnc12` (stereo not drawn) [Example 251, 6-isopropyl-5-(8-methoxy-[1,2,4]triazolo[1,5-a]pyridin-6-yl)-1-(4-thiomorpholinocyclohexyl)-1,3-dihydro-2H-benzo[d]imidazol-2-one], `COc1cc(-c2cc3[nH]c(=O)n(C4CCC(N5CCC(F)(F)C5)CC4)c3cc2C(C)C)cn2ncnc12` (single isomer, unassigned) [Example 295, 1-(4-(3,3-difluoropyrrolidin-1-yl)cyclohexyl)-6-isopropyl-5-(8-methoxy-[1,2,4]triazolo[1,5-a]pyridin-6-yl)-1,3-dihydro-2H-benzo[d]imidazol-2-one] is 8.3-fold higher in IC50: 0.95 nM for the first, 7.9 nM for the second.

First: COc1c(C)c(-c2cc3[nH]c(=O)n(C4CCC(N5CC(F)C5)CC4)c3cc2C(C)C)cn2ncnc12 (single isomer, unassigned) [Example 263, 1-(4-(3-fluoroazetidin-1-yl)cyclohexyl)-6-isopropyl-5-(8-methoxy-7-methyl-[1,2,4]triazolo[1,5-a]pyridin-6-yl)-1,3-dihydro-2H-benzo[d]imidazol-2-one]
Second: Cc1c(-c2cc3[nH]c(=O)n(C4CCC(N5CCCOCC5)CC4)c3cc2C(C)C)cn2ncnc2c1C (stereo not drawn) [Example 272, 1-(4-(1,4-oxazepan-4-yl)cyclohexyl)-5-(7,8-dimethyl-[1,2,4]triazolo[1,5-a]pyridin-6-yl)-6-isopropyl-1,3-dihydro-2H-benzo[d]imidazol-2-one]
The IC50 of the first is 5.9-fold higher: 2.91 nM for the first, 0.49 nM for the second. The second is the more potent here.

Compared with `Cc1cc2c(cc1-c1cc(C)c3ncnn3c1)[nH]c(=O)n2[C@@H]1CCCN(C2COC2)C1` [Example 18, (R)-6-methyl-5-(8-methyl-[1,2,4]triazolo[1,5-a]pyridin-6-yl)-1-(1-(oxetan-3-yl)piperidin-3-yl)-1,3-dihydro-2H-benzo[d]imidazol-2-one], `CCC(C)N1CCC[C@@H](n2c(=O)[nH]c3cc(-c4cc(C)c5ncnn5c4)c(C)cc32)C1` (stereo partly drawn) [Example 28, 1-((3R)-1-(sec-butyl)piperidin-3-yl)-6-methyl-5-(8-methyl-[1,2,4]triazolo[1,5-a]pyridin-6-yl)-1,3-dihydro-2H-benzo[d]imidazol-2-one] is 3.6-fold lower in IC50: 80.8 nM for the first, 22.5 nM for the second.

Going from `COc1c(C)c(-c2cc3[nH]c(=O)n(C4CCC(N5CC(F)C5)CC4)c3cc2C(C)C)cn2ncnc12` (single isomer, unassigned) [Example 264, 1-(4-(3-fluoroazetidin-1-yl)cyclohexyl)-6-isopropyl-5-(8-methoxy-7-methyl-[1,2,4]triazolo[1,5-a]pyridin-6-yl)-1,3-dihydro-2H-benzo[d]imidazol-2-one] to `COc1c(C)c(-c2cc3[nH]c(=O)n(C4CCC(NCC5(S(C)(=O)=O)CC5)CC4)c3cc2C(C)C)cn2ncnc12` (single isomer, unassigned) [Example 260], the IC50 falls from 5.93 nM to 0.38 nM (16-fold). The second is the more potent here.

`Cc1cc2c(cc1-c1cc(C)c3ncnn3c1)[nH]c(=O)n2[C@H]1CC[C@H](N(C)C)CC1` [Example 23, 1-((1r,4r)-4-(dimethylamino)cyclohexyl)-6-methyl-5-(8-methyl-[1,2,4]triazolo[1,5-a]pyridin-6-yl)-1,3-dihydro-2H-benzo[d]imidazol-2-one] showed an IC50 of 30.9 nM.
